Measured values published in PubChem BioAssay (NCI).
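Dose response: 5 concentrations. Exposure: 48 h. Format: 96-well plates. Endpoint: linear interpolation; highest concentration if not reached. GI50 marks 50% less growth. TGI is the concentration that stops growth completely.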

What was measured:
Experiment in all cases: NCI tumour cell line growth inhibition, 48 h
SNB-75 CNS = test system: SNB-75 CNS
NCI/ADR-RES ovarian = test system: NCI/ADR-RES ovarian
T-47D breast = test system: T-47D breast
PC-3 prostate = test system: PC-3 prostate
LOX IMVI melanoma = test system: LOX IMVI melanoma
SF-295 CNS = test system: SF-295 CNS
HCT-15 colon = test system: HCT-15 colon
CCRF-CEM leukemia = test system: CCRF-CEM leukemia
NCI-H522 lung = test system: NCI-H522 lung
IGROV1 ovarian = test system: IGROV1 ovarian
MALME-3M melanoma = test system: MALME-3M melanoma
UACC-257 melanoma = test system: UACC-257 melanoma
MDA-MB-231 breast = test system: MDA-MB-231 breast
SK-MEL-2 melanoma = test system: SK-MEL-2 melanoma
SF-268 CNS = test system: SF-268 CNS
NCI-H460 lung = test system: NCI-H460 lung
OVCAR-3 ovarian = test system: OVCAR-3 ovarian
OVCAR-4 ovarian = test system: OVCAR-4 ovarian
ACHN renal = test system: ACHN renal
HOP-62 NSCLC = test system: HOP-62 NSCLC
MDA-MB-435 = test system: MDA-MB-435
RXF 393 renal = test system: RXF 393 renal
SN12C renal = test system: SN12C renal
OVCAR-5 ovarian = test system: OVCAR-5 ovarian
RPMI-8226 leukemia = test system: RPMI-8226 leukemia
NCI-H23 lung = test system: NCI-H23 lung
HT29 colon = test system: HT29 colon
A498 renal = test system: A498 renal
NCI-H226 lung = test system: NCI-H226 lung
EKVX NSCLC = test system: EKVX NSCLC
TK-10 renal = test system: TK-10 renal
SW-620 colon = test system: SW-620 colon
U251 CNS = test system: U251 CNS
HCC-2998 colon = test system: HCC-2998 colon
DU-145 prostate = test system: DU-145 prostate
MCF7 breast = test system: MCF7 breast
KM12 colon = test system: KM12 colon
SK-MEL-28 melanoma = test system: SK-MEL-28 melanoma
SR leukemia = test system: SR leukemia
SK-OV-3 ovarian = test system: SK-OV-3 ovarian
K-562 leukemia = test system: K-562 leukemia
HCT-116 colon = test system: HCT-116 colon
HL-60(TB) leukemia = test system: HL-60(TB) leukemia
HOP-92 NSCLC = test system: HOP-92 NSCLC
M14 melanoma = test system: M14 melanoma
BT-549 breast = test system: BT-549 breast
MOLT-4 leukemia = test system: MOLT-4 leukemia
UO-31 renal = test system: UO-31 renal
HS 578T breast = test system: HS 578T breast
SF-539 CNS = test system: SF-539 CNS
SK-MEL-5 melanoma = test system: SK-MEL-5 melanoma
UACC-62 melanoma = test system: UACC-62 melanoma
CAKI-1 renal = test system: CAKI-1 renal
786-0 renal = test system: 786-0 renal
COLO 205 colon = test system: COLO 205 colon
OVCAR-8 ovarian = test system: OVCAR-8 ovarian
SNB-19 CNS = test system: SNB-19 CNS
A549 NSCLC = test system: A549 NSCLC

## COc1ccc(-c2cn[nH]c2-c2cc(OC)c(OC)c(OC)c2)cc1OCc1ccccc1
SNB-75 CNS
  GI50: 2.91 µM
  TGI: 9.23 µM
NCI/ADR-RES ovarian
  GI50: 2.52 µM
  TGI: 7.43 µM
T-47D breast
  GI50: 2.83 µM
  TGI: 19.1 µM
PC-3 prostate
  GI50: 3.24 µM
  TGI: 19.1 µM
LOX IMVI melanoma
  GI50: 3.44 µM
  TGI: 13.6 µM
SF-295 CNS
  GI50: 3.01 µM
  TGI: 9.02 µM
HCT-15 colon
  GI50: 3.07 µM
  TGI: 13.2 µM
CCRF-CEM leukemia
  GI50: 3.49 µM
  TGI: 26.5 µM
NCI-H522 lung
  GI50: 2 µM
  TGI: 9.31 µM
IGROV1 ovarian
  GI50: 3.52 µM
  TGI: 18.7 µM
MALME-3M melanoma
  GI50: 4.28 µM
  TGI: 26.2 µM
UACC-257 melanoma
  GI50: 6.38 µM
  TGI: 24.3 µM
MDA-MB-231 breast
  GI50: 3.25 µM
  TGI: 16.5 µM
SK-MEL-2 melanoma
  GI50: 4.27 µM
  TGI: 16.7 µM
SF-268 CNS
  GI50: 4.6 µM
  TGI: 27 µM
NCI-H460 lung
  GI50: 3.35 µM
  TGI: 12.2 µM
OVCAR-3 ovarian
  GI50: 2.47 µM
  TGI: 5.44 µM
OVCAR-4 ovarian
  GI50: 4.97 µM
  TGI: 59.1 µM
ACHN renal
  GI50: 3.53 µM
  TGI: 35.2 µM
HOP-62 NSCLC
  GI50: 3.13 µM
  TGI: 14.1 µM
MDA-MB-435
  GI50: 1.95 µM
  TGI: 3.91 µM
RXF 393 renal
  GI50: 1.95 µM
  TGI: 4.85 µM
SN12C renal
  GI50: 4.41 µM
  TGI: 19.4 µM
OVCAR-5 ovarian
  GI50: 3.76 µM
  TGI: 28 µM
RPMI-8226 leukemia
  GI50: 2.22 µM
  TGI: 9.28 µM
NCI-H23 lung
  GI50: 4.21 µM
  TGI: 31.7 µM
HT29 colon
  GI50: 3.61 µM
  TGI: 15.8 µM
A498 renal
  GI50: 2.08 µM
  TGI: 5.51 µM
NCI-H226 lung
  GI50: 3.57 µM
  TGI: 20.5 µM
EKVX NSCLC
  GI50: 4.48 µM
  TGI: 47.2 µM
TK-10 renal
  GI50: 4.53 µM
  TGI: 49 µM
SW-620 colon
  GI50: 4.37 µM
  TGI: 30.2 µM
U251 CNS
  GI50: 3.24 µM
  TGI: 11.8 µM
HCC-2998 colon
  GI50: 3.45 µM
  TGI: 12.1 µM
DU-145 prostate
  GI50: 3.94 µM
  TGI: 21.6 µM
MCF7 breast
  GI50: 3.65 µM
  TGI: 17.1 µM
KM12 colon
  GI50: 3.3 µM
  TGI: 12 µM
SK-MEL-28 melanoma
  GI50: 4.86 µM
  TGI: 18.3 µM
SR leukemia
  GI50: 2.85 µM
  TGI: 9.38 µM
SK-OV-3 ovarian
  GI50: 3.74 µM
  TGI: 23.8 µM
K-562 leukemia
  GI50: 3.18 µM
  TGI: > 100 µM
HCT-116 colon
  GI50: 3.13 µM
  TGI: 11.2 µM
HL-60(TB) leukemia
  GI50: 2.36 µM
  TGI: 5.44 µM
HOP-92 NSCLC
  GI50: 2.01 µM
  TGI: 15.3 µM
M14 melanoma
  GI50: 2.63 µM
  TGI: 8.77 µM
BT-549 breast
  GI50: 5.33 µM
  TGI: 25.8 µM
MOLT-4 leukemia
  GI50: 3.1 µM
  TGI: 11 µM
UO-31 renal
  GI50: 3.21 µM
  TGI: 15.2 µM
HS 578T breast
  GI50: 2.23 µM
  TGI: 8.86 µM
SF-539 CNS
  GI50: 2.19 µM
  TGI: 5.23 µM
SK-MEL-5 melanoma
  GI50: 2.29 µM
  TGI: 5.89 µM
UACC-62 melanoma
  GI50: 3.02 µM
  TGI: 13.3 µM
CAKI-1 renal
  GI50: 3.58 µM
  TGI: 47.1 µM
786-0 renal
  GI50: 2.96 µM
  TGI: 16.2 µM
COLO 205 colon
  GI50: 4.58 µM
  TGI: 18.1 µM
OVCAR-8 ovarian
  GI50: 3.72 µM
  TGI: 30.3 µM
SNB-19 CNS
  GI50: 4.23 µM
  TGI: 24.7 µM
A549 NSCLC
  GI50: 3.56 µM
  TGI: 51.6 µM
